Patent publication US4914187A, “Ester derivatives of antibiotic L 17046” (Gruppo Lepetit S.p.A, priority 1989, dated 1990)
Values after ≈ are worked out from the molar mass of the structure shown.

Columns and labels:
[1] = tested on: S. aureus ATCC 6538; assay: agar-dilution MIC test; format: cell-based; details: 18-24 h at 37° C.
Method: (§1) Isosensitest broth (Oxoid) and Todd-Hewitt broth (Difco) are used for growing staphylococci and streptococci, respectively. Broth cultures are diluted so that the final inoculum is about 10^4 colony forming units/ml (CFU/ml).

[2] = tested on: S. epidermidis ATCC 12228; assay: agar-dilution MIC test; format: cell-based
Method: as §1

[3] = tested on: S. faecalis ATCC 7080; assay: agar-dilution MIC test; format: cell-based
Method: as §1

[4] = tested on: S. pneumoniae UC 41; assay: agar-dilution MIC test; format: cell-based
Method: as §1

[5] = tested on: S. pyogenes C 203 SKF 13400; assay: agar-dilution MIC test; format: cell-based
Method: as §1

[6] = tested on: S. aureus TOUR; assay: agar-dilution MIC test; format: cell-based
Text: Isosensitest broth (Oxoid) and Todd-Hewitt broth (Difco) are used for growing staphylococci and streptococci, respectively. […]

[7] = tested on: E. coli SKF 12140; assay: agar-dilution MIC test; format: cell-based
[8] = pKa by titration; format: physicochemical; details: methylcellulose ®/water 4:1 (v/v), excess 0.01 M hydrogen chloride, titrated with 0.01 M NaOH
Method: ^(c) the samples are dissolved in methylcellulose ®/water 4:1
(v/v), an excess of 0.01 M hydrogen chloride in the same mixture is added
thereto and the resulting solution is titrated with 0.01 M NaOH in the […]

[9] = S. aureus TOUR + 30% bovine serum

Structure (SMILES)	MIC [1] [µg/mL]	MIC [2] [µg/mL]	MIC [3] [µg/mL]	MIC [4] [µg/mL]	MIC [5] [µg/mL]	MIC ([6]; S. aureus TOUR (10^3 CFU/ml)) [µg/mL]	MIC ([6]; S. aureus TOUR (10^6 CFU/ml)) [µg/mL]	MIC [6, 9] [µg/mL]	MIC [7] [µg/mL]	pKa [8]
COC(=O)C1NC(=O)C2NC(=O)C(NC(=O)C3NC(=O)C4NC(=O)C(Cc5ccc(c(Cl)c5)Oc5cc3cc(c5O)Oc3ccc(cc3Cl)C2O[C@@H]2O[C@H](CO)[C@@H](O)[C@H](O)[C@H]2NC(C)=O)NC(=O)C(N)c2ccc(O)c(c2)Oc2cc(O)cc4c2)c2ccc(O)c(c2)-c2c(O)cc(O)cc21.Cl (some centres unmarked) [Example 1, antibiotic L 17046 methyl ester, hydrochloride]	0.125	0.016	0.5	0.5	0.5	0.125	0.5	0.25	128	6.70
CCOC(=O)C1NC(=O)C2NC(=O)C(NC(=O)C3NC(=O)C4NC(=O)C(Cc5ccc(c(Cl)c5)Oc5cc3cc(c5O)Oc3ccc(cc3Cl)C2O[C@@H]2O[C@H](CO)[C@@H](O)[C@H](O)[C@H]2NC(C)=O)NC(=O)C(N)c2ccc(O)c(c2)Oc2cc(O)cc4c2)c2ccc(O)c(c2)-c2c(O)cc(O)cc21.Cl (some centres unmarked) [Example 2, antibiotic L 17046 ethyl ester, hydrochloride]	0.25	0.016	0.5	0.5	0.5	0.25	0.5	0.5	128	6.68
CCCCOC(=O)C1NC(=O)C2NC(=O)C(NC(=O)C3NC(=O)C4NC(=O)C(Cc5ccc(c(Cl)c5)Oc5cc3cc(c5O)Oc3ccc(cc3Cl)C2O[C@@H]2O[C@H](CO)[C@@H](O)[C@H](O)[C@H]2NC(C)=O)NC(=O)C(N)c2ccc(O)c(c2)Oc2cc(O)cc4c2)c2ccc(O)c(c2)-c2c(O)cc(O)cc21.Cl (some centres unmarked) [Example 3, antibiotic L 17046 n-butyl ester, hydrochloride]	0.25	0.016	0.5	0.5	0.25	0.125	0.25	0.5	128	6.65
CC(=O)N[C@H]1[C@H](OC2c3ccc(c(Cl)c3)Oc3cc4cc(c3O)Oc3ccc(cc3Cl)CC3NC(=O)C(N)c5ccc(O)c(c5)Oc5cc(O)cc(c5)C(NC3=O)C(=O)NC4C(=O)NC3C(=O)NC2C(=O)NC(C(=O)OCCCl)c2cc(O)cc(O)c2-c2cc3ccc2O)O[C@H](CO)[C@@H](O)[C@@H]1O.Cl (some centres unmarked) [Example 4, antibiotic L 17046 2-chloroethyl ester, hydrochloride]	0.25	0.064	0.5	0.5	0.25	0.25	0.5	0.5	128	6.67
CC(=O)N[C@H]1[C@H](OC2c3ccc(c(Cl)c3)Oc3cc4cc(c3O)Oc3ccc(cc3Cl)CC3NC(=O)C(N)c5ccc(O)c(c5)Oc5cc(O)cc(c5)C(NC3=O)C(=O)NC4C(=O)NC3C(=O)NC2C(=O)NC(C(=O)OCCCCCl)c2cc(O)cc(O)c2-c2cc3ccc2O)O[C@H](CO)[C@@H](O)[C@@H]1O.Cl (some centres unmarked) [Example 5, antibiotic L 17046 4-chlorobutyl ester, hydrochloride]	0.25	0.064	0.25	0.125	0.25	0.125	0.125	0.5	128	6.66
CC(=O)N[C@H]1[C@H](OC2c3ccc(c(Cl)c3)Oc3cc4cc(c3O)Oc3ccc(cc3Cl)CC3NC(=O)C(N)c5ccc(O)c(c5)Oc5cc(O)cc(c5)C(NC3=O)C(=O)NC4C(=O)NC3C(=O)NC2C(=O)NC(C(=O)OCc2ccccc2)c2cc(O)cc(O)c2-c2cc3ccc2O)O[C@H](CO)[C@@H](O)[C@@H]1O.O=C(O)C(F)(F)F (some centres unmarked) [Example 8, antibiotic L 17046 benzyl ester trifluoroacetate]	–	0.063	0.125	0.25	0.125	0.125	0.125	4	64	–
CC(=O)N[C@H]1[C@H](OC2c3ccc(c(Cl)c3)Oc3cc4cc(c3O)Oc3ccc(cc3Cl)CC3NC(=O)C(N)c5ccc(O)c(c5)Oc5cc(O)cc(c5)C(NC3=O)C(=O)NC4C(=O)NC3C(=O)NC2C(=O)NC(C(=O)OCc2ccc(C)cc2)c2cc(O)cc(O)c2-c2cc3ccc2O)O[C@H](CO)[C@@H](O)[C@@H]1O (some centres unmarked) [Example 10, antibiotic L 17046 (4-methyl)-benzyl ester]	–	0.063 (≈ 0.0418 µM)	0.25 (≈ 0.166 µM)	0.5 (≈ 0.332 µM)	0.125 (≈ 0.083 µM)	0.125 (≈ 0.083 µM)	0.25 (≈ 0.166 µM)	4	64 (≈ 42.5 µM)	–
CC(=O)N[C@H]1[C@H](OC2c3ccc(c(Cl)c3)Oc3cc4cc(c3O)Oc3ccc(cc3Cl)CC3NC(=O)C(N)c5ccc(O)c(c5)Oc5cc(O)cc(c5)C(NC3=O)C(=O)NC4C(=O)NC3C(=O)NC2C(=O)NC(C(=O)OCCO)c2cc(O)cc(O)c2-c2cc3ccc2O)O[C@H](CO)[C@@H](O)[C@@H]1O.O=C(O)C(F)(F)F (some centres unmarked) [Example 12, antibiotic L 17046 (2-hydroxy)ethyl ester trifluroacetate]	–	0.063	0.25	1	0.25	0.125	0.125	0.5	128	–
